Reference: the supplement of paper PMC8558673
± gives the standard deviation of the averaged measurements.

System: Escherichia coli K12 ER1821
Experiment: log10 surviving fraction N/N0 (CFU/mL relative to untreated control) (log_unit); higher = more bacterial survival (less inactivation)
Experimental: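 E. coli K12 ER1821 (mid-exponential, washed in 250 mM sucrose) was exposed to antibiotic at MIC, 3x, 10x or 30x MIC, given a single 1-ms pulse of 0-20 kV/cm, and incubated with the antibiotic at room temperature for <=1 min, 60 min, 160 min or 24 h before dilution. Survivors were counted as CFU by drop plating after overnight growth at 37 C; the value is log10(N/N0) relative to the untreated control (no antibiotic, no pulse), with 3 replicates on different days.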

CC1(C)S[C@@H]2[C@H](NC(=O)[C@H](N)c3ccccc3)C(=O)N2[C@H]1C(=O)O [ampicillin]
log10 surviving fraction N/N0
Settings | antibiotic concentration 30 ug/mL | antibiotic concentration 90 ug/mL | antibiotic concentration 300 ug/mL | antibiotic concentration 900 ug/mL
electric pulse amplitude (kV/cm, single 1-ms pulse): 0, post-pulse incubation time: 24 h | -0.726 ± 0.21 | -1.73 ± 0.5 | -2.56 ± 0.4 | -2.68 ± 0.58
electric pulse amplitude (kV/cm, single 1-ms pulse): 0, post-pulse incubation time: 60 min | -0.0801 ± 0.11 | -0.135 ± 0.071 | -1.02 ± 0.3 | -1.65 ± 0.55
electric pulse amplitude (kV/cm, single 1-ms pulse): 0, post-pulse incubation time: 160 min | -0.551 ± 0.082 | -1.08 ± 0.51 | -1.68 ± 0.37 | -2.17 ± 0.18
electric pulse amplitude (kV/cm, single 1-ms pulse): 0, post-pulse incubation time: <=1 min | -0.0839 ± 0.2 | -0.253 ± 0.21 | -0.17 ± 0.065 | -0.995 ± 1.3
electric pulse amplitude (kV/cm, single 1-ms pulse): 5, post-pulse incubation time: 24 h | -1.01 ± 0.22 | -1.77 ± 0.29 | -2.86 ± 0.12 | -3.4 ± 0.45
electric pulse amplitude (kV/cm, single 1-ms pulse): 5, post-pulse incubation time: 60 min | -0.411 ± 0.078 | -0.494 ± 0.28 | -1.56 ± 0.34 | -2.27 ± 0.084
electric pulse amplitude (kV/cm, single 1-ms pulse): 5, post-pulse incubation time: 160 min | -0.803 ± 0.34 | -1.47 ± 0.42 | -2.27 ± 0.37 | -2.86 ± 0.15
electric pulse amplitude (kV/cm, single 1-ms pulse): 5, post-pulse incubation time: <=1 min | -0.112 ± 0.21 | -0.305 ± 0.13 | -0.412 ± 0.064 | -1.08 ± 0.74
electric pulse amplitude (kV/cm, single 1-ms pulse): 10, post-pulse incubation time: 24 h | -1.62 ± 0.53 | -2.91 ± 0.34 | -4.063 ± 0.034 | -4.5 ± 0.3
electric pulse amplitude (kV/cm, single 1-ms pulse): 10, post-pulse incubation time: 60 min | -1.07 ± 0.36 | -1.59 ± 0.21 | -2.43 ± 0.1 | -2.817 ± 0.024
electric pulse amplitude (kV/cm, single 1-ms pulse): 10, post-pulse incubation time: 160 min | -1.64 ± 0.27 | -2.22 ± 0.14 | -2.96 ± 0.21 | -3.31 ± 0.052
electric pulse amplitude (kV/cm, single 1-ms pulse): 10, post-pulse incubation time: <=1 min | -0.474 ± 0.15 | -0.722 ± 0.092 | -1.11 ± 0.27 | -1.27 ± 0.38
electric pulse amplitude (kV/cm, single 1-ms pulse): 15, post-pulse incubation time: 24 h | -2.66 ± 0.68 | -3.79 ± 0.51 | -4.45 ± 0.2 | -4.93 ± 0.065
electric pulse amplitude (kV/cm, single 1-ms pulse): 15, post-pulse incubation time: 60 min | -1.88 ± 0.47 | -2.12 ± 0.2 | -2.9 ± 0.12 | -3.28 ± 0.097
electric pulse amplitude (kV/cm, single 1-ms pulse): 15, post-pulse incubation time: 160 min | -2.2 ± 0.31 | -2.74 ± 0.23 | -3.3 ± 0.13 | -3.8 ± 0.19
electric pulse amplitude (kV/cm, single 1-ms pulse): 15, post-pulse incubation time: <=1 min | -1.1 ± 0.047 | -1.29 ± 0.091 | -1.34 ± 0.096 | -1.99 ± 0.23
electric pulse amplitude (kV/cm, single 1-ms pulse): 20, post-pulse incubation time: 24 h | -3.57 ± 0.55 | -4.39 ± 0.22 | -4.6 ± 0.24 | -4.96 ± 0.26
electric pulse amplitude (kV/cm, single 1-ms pulse): 20, post-pulse incubation time: 60 min | -2.46 ± 0.41 | -2.71 ± 0.36 | -3.42 ± 0.14 | -3.64 ± 0.23
electric pulse amplitude (kV/cm, single 1-ms pulse): 20, post-pulse incubation time: 160 min | -2.65 ± 0.27 | -3.23 ± 0.18 | -3.77 ± 0.091 | -4.02 ± 0.18
electric pulse amplitude (kV/cm, single 1-ms pulse): 20, post-pulse incubation time: <=1 min | -1.34 ± 0.096 | -1.45 ± 0.41 | -1.85 ± 0.18 | -2.58 ± 0.27

O=C(O)c1cn(C2CC2)c2cc(N3CCNCC3)c(F)cc2c1=O [ciprofloxacin]
log10 surviving fraction N/N0
Settings | antibiotic concentration 0.025 ug/mL | antibiotic concentration 0.075 ug/mL | antibiotic concentration 0.25 ug/mL | antibiotic concentration 0.75 ug/mL
electric pulse amplitude (kV/cm, single 1-ms pulse): 0, post-pulse incubation time: 24 h | -1.23 ± 0.19 | -2.32 ± 0.059 | -3.37 ± 0.11 | -2.76 ± 0.23
electric pulse amplitude (kV/cm, single 1-ms pulse): 0, post-pulse incubation time: 60 min | -0.187 ± 0.1 | -0.389 ± 0.13 | -1.04 ± 0.12 | -1.39 ± 0.16
electric pulse amplitude (kV/cm, single 1-ms pulse): 0, post-pulse incubation time: 160 min | -0.358 ± 0.26 | -0.825 ± 0.37 | -1.78 ± 0.42 | -2.04 ± 0.32
electric pulse amplitude (kV/cm, single 1-ms pulse): 0, post-pulse incubation time: <=1 min | -0.0971 ± 0.099 | -0.218 ± 0.055 | -0.361 ± 0.14 | -0.897 ± 0.1
electric pulse amplitude (kV/cm, single 1-ms pulse): 5, post-pulse incubation time: 24 h | -1.2 ± 0.25 | -2.36 ± 0.19 | -3.46 ± 0.16 | -2.88 ± 0.27
electric pulse amplitude (kV/cm, single 1-ms pulse): 5, post-pulse incubation time: 60 min | -0.336 ± 0.14 | -0.615 ± 0.25 | -1.11 ± 0.18 | -1.47 ± 0.23
electric pulse amplitude (kV/cm, single 1-ms pulse): 5, post-pulse incubation time: 160 min | -0.532 ± 0.35 | -0.993 ± 0.39 | -1.87 ± 0.49 | -2.11 ± 0.44
electric pulse amplitude (kV/cm, single 1-ms pulse): 5, post-pulse incubation time: <=1 min | -0.217 ± 0.19 | -0.161 ± 0.28 | -0.535 ± 0.29 | -1.04 ± 0.27
electric pulse amplitude (kV/cm, single 1-ms pulse): 10, post-pulse incubation time: 24 h | -1.78 ± 0.21 | -2.97 ± 0.18 | -3.49 ± 0.19 | -3.36 ± 0.33
electric pulse amplitude (kV/cm, single 1-ms pulse): 10, post-pulse incubation time: 60 min | -0.593 ± 0.57 | -1.29 ± 0.46 | -1.69 ± 0.37 | -2.16 ± 0.25
electric pulse amplitude (kV/cm, single 1-ms pulse): 10, post-pulse incubation time: 160 min | -1.04 ± 0.52 | -1.73 ± 0.55 | -2.52 ± 0.42 | -2.86 ± 0.42
electric pulse amplitude (kV/cm, single 1-ms pulse): 10, post-pulse incubation time: <=1 min | -0.507 ± 0.38 | -0.67 ± 0.47 | -0.989 ± 0.35 | -1.83 ± 0.28
electric pulse amplitude (kV/cm, single 1-ms pulse): 15, post-pulse incubation time: 24 h | -2.35 ± 0.31 | -3.37 ± 0.24 | -3.85 ± 0.34 | -4.09 ± 0.56
electric pulse amplitude (kV/cm, single 1-ms pulse): 15, post-pulse incubation time: 60 min | -1.41 ± 0.47 | -1.81 ± 0.67 | -2.34 ± 0.29 | -2.77 ± 0.24
electric pulse amplitude (kV/cm, single 1-ms pulse): 15, post-pulse incubation time: 160 min | -1.62 ± 0.71 | -2.31 ± 0.57 | -3.12 ± 0.34 | -3.27 ± 0.31
electric pulse amplitude (kV/cm, single 1-ms pulse): 15, post-pulse incubation time: <=1 min | -1.25 ± 0.49 | -1.2 ± 0.45 | -1.55 ± 0.46 | -2.28 ± 0.38
electric pulse amplitude (kV/cm, single 1-ms pulse): 20, post-pulse incubation time: 24 h | -3.05 ± 0.28 | -3.76 ± 0.18 | -4.37 ± 0.31 | -4.6 ± 0.33
electric pulse amplitude (kV/cm, single 1-ms pulse): 20, post-pulse incubation time: 60 min | -1.77 ± 0.32 | -2.25 ± 0.66 | -2.75 ± 0.42 | -3.05 ± 0.25
electric pulse amplitude (kV/cm, single 1-ms pulse): 20, post-pulse incubation time: 160 min | -1.92 ± 0.58 | -2.73 ± 0.52 | -3.31 ± 0.43 | -3.37 ± 0.14
electric pulse amplitude (kV/cm, single 1-ms pulse): 20, post-pulse incubation time: <=1 min | -1.65 ± 0.52 | -1.77 ± 0.58 | -2.05 ± 0.29 | -2.91 ± 0.26

CN(C)[C@@H]1C(O)=C(C(N)=O)C(=O)[C@@]2(O)C(O)=C3C(=O)c4c(O)cccc4[C@@](C)(O)[C@H]3C[C@@H]12 [tetracycline]
log10 surviving fraction N/N0
Settings | antibiotic concentration 2 ug/mL | antibiotic concentration 6 ug/mL | antibiotic concentration 20 ug/mL | antibiotic concentration 60 ug/mL
electric pulse amplitude (kV/cm, single 1-ms pulse): 0, post-pulse incubation time: 24 h | -0.417 ± 0.088 | -0.475 ± 0.12 | -0.573 ± 0.19 | -1.45 ± 0.4
electric pulse amplitude (kV/cm, single 1-ms pulse): 0, post-pulse incubation time: 60 min | -0.108 ± 0.059 | -0.125 ± 0.075 | -0.116 ± 0.12 | -0.361 ± 0.13
electric pulse amplitude (kV/cm, single 1-ms pulse): 0, post-pulse incubation time: 160 min | -0.0521 ± 0.044 | -0.172 ± 0.11 | -0.241 ± 0.039 | -0.461 ± 0.24
electric pulse amplitude (kV/cm, single 1-ms pulse): 0, post-pulse incubation time: <=1 min | -0.0586 ± 0.051 | -0.2 ± 0.12 | -0.136 ± 0.1 | -0.26 ± 0.19
electric pulse amplitude (kV/cm, single 1-ms pulse): 5, post-pulse incubation time: 24 h | -0.436 ± 0.19 | -0.518 ± 0.25 | -0.877 ± 0.35 | -2.42 ± 0.75
electric pulse amplitude (kV/cm, single 1-ms pulse): 5, post-pulse incubation time: 60 min | -0.307 ± 0.18 | -0.307 ± 0.11 | -0.303 ± 0.11 | -0.636 ± 0.065
electric pulse amplitude (kV/cm, single 1-ms pulse): 5, post-pulse incubation time: 160 min | -0.235 ± 0.033 | -0.282 ± 0.076 | -0.345 ± 0.044 | -0.84 ± 0.19
electric pulse amplitude (kV/cm, single 1-ms pulse): 5, post-pulse incubation time: <=1 min | -0.0914 ± 0.14 | -0.264 ± 0.18 | -0.276 ± 0.28 | -0.618 ± 0.28
electric pulse amplitude (kV/cm, single 1-ms pulse): 10, post-pulse incubation time: 24 h | -0.65 ± 0.17 | -0.762 ± 0.33 | -1.8 ± 1.2 | -3.46 ± 0.28
electric pulse amplitude (kV/cm, single 1-ms pulse): 10, post-pulse incubation time: 60 min | -0.769 ± 0.21 | -0.825 ± 0.09 | -1.02 ± 0.17 | -1.72 ± 0.16
electric pulse amplitude (kV/cm, single 1-ms pulse): 10, post-pulse incubation time: 160 min | -0.827 ± 0.15 | -0.925 ± 0.08 | -1.11 ± 0.65 | -2.1 ± 0.2
electric pulse amplitude (kV/cm, single 1-ms pulse): 10, post-pulse incubation time: <=1 min | -0.389 ± 0.17 | -0.48 ± 0.32 | -0.656 ± 0.44 | -1.39 ± 0.28
electric pulse amplitude (kV/cm, single 1-ms pulse): 15, post-pulse incubation time: 24 h | -1 ± 0.26 | -1.48 ± 0.42 | -2.97 ± 0.83 | -4.05 ± 0.41
electric pulse amplitude (kV/cm, single 1-ms pulse): 15, post-pulse incubation time: 60 min | -1.45 ± 0.26 | -1.53 ± 0.19 | -1.82 ± 0.21 | -2.48 ± 0.15
electric pulse amplitude (kV/cm, single 1-ms pulse): 15, post-pulse incubation time: 160 min | -1.46 ± 0.33 | -1.63 ± 0.21 | -1.99 ± 0.35 | -2.74 ± 0.24
electric pulse amplitude (kV/cm, single 1-ms pulse): 15, post-pulse incubation time: <=1 min | -0.764 ± 0.32 | -0.971 ± 0.36 | -1.23 ± 0.49 | -2.06 ± 0.29
electric pulse amplitude (kV/cm, single 1-ms pulse): 20, post-pulse incubation time: 24 h | -1.49 ± 0.25 | -1.98 ± 0.65 | -3.9 ± 0.48 | -4.78 ± 0.42
electric pulse amplitude (kV/cm, single 1-ms pulse): 20, post-pulse incubation time: 60 min | -1.99 ± 0.32 | -2.02 ± 0.21 | -2.25 ± 0.32 | -3.13 ± 0.29
electric pulse amplitude (kV/cm, single 1-ms pulse): 20, post-pulse incubation time: 160 min | -1.97 ± 0.35 | -2.19 ± 0.23 | -2.44 ± 0.39 | -3.57 ± 0.25
electric pulse amplitude (kV/cm, single 1-ms pulse): 20, post-pulse incubation time: <=1 min | -1.26 ± 0.25 | -1.3 ± 0.48 | -1.57 ± 0.41 | -2.34 ± 0.29
